Data reported in US4997829A, “Penem compounds, and use thereof” (Suntory Limited, priority 1985, dated 1991).
Like-named read-outs stand apart in the source and are kept apart here.

How the values were obtained:
[1] = literature; cited from earlier work
E. coli KC-14 [2] = assay: Therapeutic effect against experimental infection of mice (survival); type: in vivo, E. coli; ICR strain male mice
Procedure: (§1) Out of the novel compounds obtained according to this invention, SUN 4435 was selected to carry out a treatment experiment with infected animals. As an animal, there were employed ICR strain male mice (5-weeks aged, with a body weight of 23 to 27 g), which were inoculated intraperitoneally with S. aureus Smith or E. coli KC-14 and 2 hours later, treated by subcutaneous or oral application of SUN 4435.

Acute toxicity test = type: in vivo; details: for LD50: mouse, in vivo, iv, route not restated (follows intravenous paragraph), read-out: 50% lethal dose (LD50); for survival: intravenous
Procedure: Out of the novel compounds obtained according to this invention, SUN 4435 and SUN 5555 were selected to carry out an acute toxicity test. As an animal, there were employed ICR strain mice (4-weeks aged), which were treated by oral and intravenous application of the compounds.

S. aureus Smith [3] = assay: Therapeutic effect against experimental infection of mice (survival); type: in vivo, S. aureus; ICR strain male mice
Procedure: as §1

K. pneumoniae PC1602 = assay: Minimum inhibitory concentration (MIC), agar plate dilution method; type: cell-based; details: Klebsiella pneumoniae, PC1602; 10^6 CFU inoculated, 37° C., 18 hours
Procedure: (§2) With regard to the novel compounds obtained according to this invention and the compounds of Reference Examples, their minimum inhibitory concentrations (MIC) were determined by the agar plate dilution method in accordance with the MIC measuring standard method of The Chemotherapeutic Society of Japan, whereby 10^6 colony forming units were inoculated and the minimal concentration to inhibit the microbial growth after inclubation at 37° C. for 18 hours were determined, as shown as μg/ml in Table.

E. coli NIHI JC-2 = assay: as above; type: cell-based; details: Escherichia coli, NIHIJC2; 10^6 CFU inoculated, 37° C., 18 hours
Procedure: as §2

B. fragilis GM7000 = assay: as above; type: cell-based; details: Bacteroides fragilis, GM7000; 10^6 CFU inoculated, 37° C., 18 hours
Procedure: as §2

S. aureus FAD209P JC-1 = assay: as above; type: cell-based; details: Staphylococcus aureus, FAD209PJC1; 10^6 CFU inoculated, 37° C., 18 hours
Procedure: as §2

M. luteus ATCC9341 = assay: as above; type: cell-based; details: Micrococcus luteus, ATCC9341; 10^6 CFU inoculated, 37° C., 18 hours
Procedure: as §2

E. coli W3630/Rms213 = assay: as above; type: cell-based; details: Escherichia coli, W3630/RMS213, 18 h, read-out: minimum inhibitory concentration (MIC)
Procedure: as §2

Pr. morganii IFO3848 = assay: as above; type: cell-based; details: Morganella morganii, IFO3848; 10^6 CFU inoculated, 37° C., 18 hours
Procedure: as §2

B. fragilis V-280-1 = assay: as above; type: cell-based; details: Bacteroides fragilis, V2801; 10^6 CFU inoculated, 37° C., 18 hours
Procedure: as §2

Ser. marcescens IMA 1136 = assay: as above; type: cell-based; details: Serratia marcescens, IMA1136; 10^6 CFU inoculated, 37° C., 18 hours
Procedure: as §2

Pr. vulgaris GN7919 = assay: as above; type: cell-based; details: Proteus vulgaris, GN7919; 10^6 CFU inoculated, 37° C., 18 hours
Procedure: as §2

E. coli W3630/Rms212 = assay: as above; type: cell-based; details: Escherichia coli, W3630/RMS212, 18 h, read-out: minimum inhibitory concentration (MIC)
Procedure: as §2

F. varium ATCC8501 = assay: as above; type: cell-based; details: Fusobacterium varium, ATCC8501; 10^6 CFU inoculated, 37° C., 18 hours
Procedure: as §2

Al. fecalis IFO13111 = assay: as above; type: cell-based; details: 10^6 CFU inoculated, 37° C., 18 hours
Procedure: as §2

Ent. cloacae 963 = assay: as above; type: cell-based; details: Enterobacter cloacae, 963; 10^6 CFU inoculated, 37° C., 18 hours
Procedure: as §2

E. coli KC-14 [4] = assay: Therapeutic effect against experimental infection in mice (ED50); type: in vivo, E. coli; ICR strain male mice; details: survival after 6 days, Probit method
Procedure: (§3) Out of the novel compound obtained according to this invention, SUN 4435 was selected to carry out a treatment experiment with infected animals. As an animal, there were employed ICR strain male mice (5-weeks aged, with an average body weight of 29.1 g), which were infected intraperitoneally with a test microorganism, S. aureus Smith or E. coli KC-14, and 24 hours later, treated by subcutaneous or oral application of SUN 4435 or SUN 5555. ED50 values were determined from the survival rates found after 6 days in accordance with the Probit method.

S. aureus Smith [5] = assay: as above; type: in vivo, S. aureus; ICR strain male mice; details: survival after 6 days, Probit method
Procedure: as §3

S. pyogenenes = assay: Sensitivity of clinically isolated strains; type: cell-based; details: clinical isolates
H. influenza = assay: Sensitivity of clinically isolated strains; type: cell-based; details: clinical isolates
Procedure: (§4) With regard to the novel compound, SUN 5555, as obtained according to this invention, sensitivities were determined toward the S. aureus strain 87, E. coli strain 88, Klebsiella sp. strain 63, P. mirabillis strain 30, P. vulgaris strain 41, M. morganii strain 29, P. rettgeri strain 17, S. marcescens strain 88, A. calcoaceticus strain 57 and H. influenza strain 25. The determinations were carried out in accordance with the minimal growth inhibitory concentration measuring method as specified by The Chemotherapeutic Society of Japan, with the results being shown […], respectively.

Klebsiella sp. = assay: Sensitivity of clinically isolated strains; type: cell-based; details: clinical isolates
Procedure: as §4

S. marcescens = assay: Sensitivity of clinically isolated strains; type: cell-based; details: Serratia marcescens; clinical isolates
Procedure: as §4

P. mirabillis = assay: Sensitivity of clinically isolated strains; type: cell-based; details: clinical isolates
Procedure: as §4

E. coli = assay: Sensitivity of clinically isolated strains; type: cell-based; details: Escherichia coli; clinical isolates
Procedure: as §4

M. morganii = assay: Sensitivity of clinically isolated strains; type: cell-based; details: Morganella morganii; clinical isolates
Procedure: as §4

[6] = system: Methycillin-resistant S. aureus; assay: Sensitivity of clinically isolated strains; type: cell-based; details: Staphylococcus aureus
Procedure: as §4

P. vulgaris = assay: Sensitivity of clinically isolated strains; type: cell-based; details: Proteus vulgaris
Procedure: as §4

P. rettgeri = assay: Sensitivity of clinically isolated strains; type: cell-based; details: Providencia rettgeri; clinical isolates
Procedure: as §4

S. aureus = assay: Sensitivity of clinically isolated strains; type: cell-based; details: Staphylococcus aureus; clinical isolates
Procedure: as §4

A. calcoaceticus = assay: Sensitivity of clinically isolated strains; type: cell-based; details: Acinetobacter calcoaceticus; clinical isolates
Procedure: as §4

In the case of `C[C@@H](O)[C@@H]1C(=O)N2C(C(=O)O)=C(SCCN)S[C@H]12` [1-thiathienamycin], the activity [1] is listed as “strong activity”.

In the case of `C[C@@H](O)[C@H]1C(=O)N2C(C(=O)O)=C([C@H]3CCCO3)S[C@H]12` [SUN 4435, Potassium (1'R, 2"R, 5R, 6S)-6-(1'-hydroxyethyl)-2-(2"-tetrahydrofuranyl)penem-3-carboxylate], the survival (E. coli KC-14 [2]; oral, 12.5 mg/kg or more, 1.5×10^5 CFU/head) is reported as “every heads were found to survive”, the survival (E. coli KC-14 [2]; subcutaneous, 1.5 mg/kg, 3.1×10^5 CFU) is reported as “three mice per five survived” and the survival (E. coli KC-14 [2]; subcutaneous, 2.6 mg/kg or more, 3.1×10^5 CFU) is reported as “every heads were found to survive”. The LD50 (Acute toxicity test; female mice) was 456 mg/kg, the LD50 (Acute toxicity test; male mice) was 480 mg/kg and the survival (S. aureus Smith [3]; oral, 3.9 mg/kg, 3.6×10^5 CFU/head) was “three heads out of five survived”. The survival (S. aureus Smith [3]; oral, 9.6 mg/kg or more, 3.6×10^5 CFU/head) was “every heads were found to survive”, the survival (S. aureus Smith [3]; subcutaneous, 1.6 mg/kg or more, 5.7×10^5 CFU) was “every heads were found to survive” and the MIC (K. pneumoniae PC1602) was 0.1 µg/mL. For the same compound, the MIC (E. coli NIHI JC-2) was 0.78 µg/mL, the MIC (B. fragilis GM7000) was under 0.025 µg/mL and the MIC (S. aureus FAD209P JC-1) was 0.05 µg/mL. The MIC (M. luteus ATCC9341) was 0.05 µg/mL, the MIC (E. coli W3630/Rms213) was 0.78 µg/mL and the MIC (Pr. morganii IFO3848) was 6.25 µg/mL. It also gave an MIC (B. fragilis V-280-1) of 0.2 µg/mL, an MIC (Ser. marcescens IMA 1136) of 3.13 µg/mL and an MIC (Pr. vulgaris GN7919) of 0.39 µg/mL. For the same compound, the MIC (E. coli W3630/Rms212) was 1.56 µg/mL, the MIC (F. varium ATCC8501) was 0.2 µg/mL and the MIC (Al. fecalis IFO13111) was 0.78 µg/mL. The MIC (Ent. cloacae 963) was 3.13 µg/mL, the ED50 (E. coli KC-14 [4]; Escherichia coli, KC14, po, 144 h, oral, read-out: ED50) was 11 mg/kg and the ED50 (E. coli KC-14 [4]; Escherichia coli, KC14, sc, 144 h, subcutaneous, read-out: ED50) was 1.5 mg/kg. It also gave an ED50 (S. aureus Smith [5]; Staphylococcus aureus, po, 144 h, read-out: ED50) of 5.9 mg/kg.

In the case of `C[C@@H](O)[C@H]1C(=O)N2C(C(=O)O)=C([C@H]3COCCO3)S[C@H]12` [SUN 4771, Potassium (1'R, 2"R, 5R, 6S)-6-(1'-hydroxyethyl)-2-(2"-para-dioxanyl)penem-3-carboxylate], the MIC (K. pneumoniae PC1602) is reported as 0.05 µg/mL, the MIC (E. coli NIHI JC-2) is reported as 1.56 µg/mL and the MIC (B. fragilis GM7000) is reported as 0.025 µg/mL. The MIC (S. aureus FAD209P JC-1) was 0.05 µg/mL, the MIC (M. luteus ATCC9341) was 0.1 µg/mL and the MIC (E. coli W3630/Rms213) was 0.73 µg/mL. The MIC (Pr. morganii IFO3848) was 6.25 µg/mL, the MIC (B. fragilis V-280-1) was 0.05 µg/mL and the MIC (Ser. marcescens IMA 1136) was 6.25 µg/mL. For the same compound, the MIC (Pr. vulgaris GN7919) was 0.78 µg/mL, the MIC (E. coli W3630/Rms212) was 1.56 µg/mL and the MIC (F. varium ATCC8501) was 0.78 µg/mL. The MIC (Al. fecalis IFO13111) was 0.78 µg/mL and the MIC (Ent. cloacae 963) was 3.13 µg/mL.

With `C[C@@H](O)[C@H]1C(=O)N2C(C(=O)O)=C([C@H]3CCCO3)S[C@H]12` [SUN 5555, Sodium (1'R, 2"R, 5R, 6S)-6-(1'-hydroxyethyl)-2-(2"-tetrahydofuranyl)penem-3-carboxylate] the MIC50 (S. pyogenenes) was under 0.025 µg/mL, the MIC90 (S. pyogenenes) was under 0.025 µg/mL and the survival (Acute toxicity test; 3 g/kg, two male and female mice) was “survived”. The survival (Acute toxicity test; 5 g/kg, five male mice) was “one out of five male mice”, the MIC50 (H. influenza) was 0.39 µg/mL and the MIC90 (H. influenza) was 0.78 µg/mL. The MIC50 (Klebsiella sp.) was 0.78 µg/mL, the MIC90 (Klebsiella sp.) was 1.56 µg/mL and the MIC50 (S. marcescens) was 1.56 µg/mL. The MIC90 (S. marcescens) was 6.25 µg/mL, the MIC50 (P. mirabillis) was 3.13 µg/mL and the MIC90 (P. mirabillis) was 6.25 µg/mL. The MIC50 (E. coli) was 0.78 µg/mL, the MIC90 (E. coli) was 1.56 µg/mL and the MIC50 (M. morganii) was 1.56 µg/mL. It also gave an MIC90 (M. morganii) of 6.25 µg/mL, an MIC50 [6] of 1.56 µg/mL and an MIC90 [6] of over 100 µg/mL. It also gave an MIC50 (P. vulgaris) of 3.13 µg/mL, an MIC90 (P. vulgaris) of 6.25 µg/mL and an MIC50 (P. rettgeri) of 1.56 µg/mL. For the same compound, the MIC90 (P. rettgeri) was 6.25 µg/mL, the MIC50 (S. aureus) was 0.1 µg/mL and the MIC90 (S. aureus) was 0.2 µg/mL. The MIC50 (A. calcoaceticus) was 6.25 µg/mL, the MIC90 (A. calcoaceticus) was 25 µg/mL and the ED50 (E. coli KC-14 [4]; oral, 8640 min) was 13.9 mg/kg. The ED50 (S. aureus Smith [5]; oral, 8640 min) was 5.6 mg/kg.

For `CCSC1=C(C(=O)O)N2C(=O)[C@H]([C@@H](C)O)[C@H]2S1` [Sch 29482], the activity [1] is listed as “strong activity”.
